In brackets after ≈: the same amount, converted by molar mass. Read-outs that look alike come from different tables or passages of the source.
Legend:
[1] = test system: M. tuberculosis H37Rv; test: Anti-mycobacterium in vitro activity, H37Rv; assay type: cell-based, Mycobacterium tuberculosis; conditions: Sensitive strain; for MIC: Mycobacterium tuberculosis, H37RV
[2] = test system: S. epidermidis ATCC 12228; test: MIC determination, S. epidermidis ATCC 12228; assay type: cell-based, Staphylococcus epidermidis; conditions: for MIC: Staphylococcus epidermidis, read-out: MIC S. epidermidis ATCC 12228; for MIC S. epidermidis ATCC 12228: Table 2
[3] = test system: M. catarrhalis ATCC 25238; test: MIC determination, M. catarrhalis ATCC 25238; assay type: cell-based; conditions: Moraxella catarrhalis, ATCC25238, Table 1; read-out: MIC M. catarrhalis ATCC 25238
[4] = test system: S. pneumoniae ATCC 6301; test: MIC determination, S. pneumoniae ATCC 6301; assay type: cell-based, Streptococcus pneumoniae; conditions: for MIC: Streptococcus pneumoniae; for MIC S. pneumonia ATCC 6301: Table 2
[5] = test system: S. aureus ATCC 29213; test: MIC determination, S. aureus ATCC 29213; assay type: cell-based, Staphylococcus aureus; conditions: for MIC: Staphylococcus aureus, read-out: MIC S. aureus ATCC 29213; for MIC S. aureus ATCC 29213: Table 2
[6] = test system: H. influenzae ATCC 49766; test: MIC determination, H. influenzae ATCC 49766; assay type: cell-based, Haemophilus influenzae; conditions: Table 2; for MIC: Haemophilus influenzae, ATCC49766
[7] = test system: E. faecium CT-26; test: MIC determination, E. faecium CT-26; assay type: cell-based, Enterococcus faecium; conditions: for MIC: Enterococcus faecium, read-out: MIC E. faecium CT-26; for MIC E. faecium CT-26: Table 2
[8] = test system: E. faecalis ATCC 29212; test: MIC determination, E. faecalis ATCC 29212; assay type: cell-based, Enterococcus faecalis; conditions: for MIC: Enterococcus faecalis, read-out: MIC E. faecalis ATCC 29212; for MIC E. faecalis ATCC 29212: Table 2
[9] = ATCC6301, Table 2, read-out: MIC S. pneumonia ATCC 6301

SMILES	MIC [1] [µg/mL]	MIC S. epidermidis ATCC 12228 [2] [micrograms per ml]	MIC S. aureus ATCC 29213 [5] [micrograms per ml]	MIC H. influenzae ATCC 49766 [6] [micrograms per ml]	MIC E. faecium CT-26 [7] [micrograms per ml]	MIC E. faecalis ATCC 29212 [8] [micrograms per ml]	also measured
NC[C@H]1O[C@H](O[C@H]2[C@H](O)[C@@H](O[C@H]3O[C@H](CO)[C@@H](O)[C@H](N)[C@H]3O)[C@H](N)C[C@@H]2N)[C@H](O)[C@@H](O)[C@@H]1O [Kanamycin]	< 2						
C[C@@H](O)[C@H]1C(=O)N2C(C(=O)O)=C(SCCN=CN)C[C@H]12 [Imipenem, reference compound]							MIC ([2]; ATCC12228, Table 1): 0.125 µg/mL (≈ 0.418 µM); MIC ([2]; ATCC12228, Table 2): 0.12 µg/mL (≈ 0.401 µM); MIC [3]: 0.125 µg/mL (≈ 0.418 µM); MIC ([4]; ATCC6301, Table 1, read-out: MIC S. pneumoniae ATCC 6301): 0.125 µg/mL (≈ 0.418 µM); MIC [4, 9]: < 0.125 µg/mL; MIC ([5]; ATCC29213, Table 1): 0.125 µg/mL (≈ 0.418 µM); MIC ([5]; ATCC29213, Table 2): 0.12 µg/mL (≈ 0.401 µM); MIC [6]: 2 µg/mL (≈ 6.68 µM); MIC ([7]; CT26, Table 1): 64 µg/mL (≈ 214 µM); MIC ([7]; CT26, Table 2): 64 µg/mL (≈ 214 µM); MIC ([8]; ATCC29212, Table 1): 1 µg/mL (≈ 3.34 µM); MIC ([8]; ATCC29212, Table 2): 1 µg/mL (≈ 3.34 µM)
Nc1ccc(C(=O)O)c(O)c1 [p-aminosalicylate]							M. tuberculosis MIC H37Rv [1]: <0.25 µg/mL
CC[C@@H](CO)NCCN[C@@H](CC)CO [Ethambutol]	< 1						
Cc1cc(Cl)ccc1B(OC(=O)c1ncccc1O)c1ccc(Cl)cc1C [Compound 118, bis(2-methyl-4-chlorophenyl)borinic acid 3-hydroxypicolinate ester]		0.25	1	16	1	1	MIC S. pneumonia ATCC 6301 [4]: 0.12 micrograms per ml
Nc1ccc(O)c(C(=O)O)n1 [Compound 122]							MIC ([2]; ATCC12228, Table 2): 4 µg/mL (≈ 26 µM); MIC [4, 9]: 16 µg/mL (≈ 104 µM); MIC ([5]; ATCC29213, Table 2): 0.25 µg/mL (≈ 1.62 µM); MIC [6]: 8 µg/mL (≈ 51.9 µM); MIC ([7]; CT26, Table 2): 32 µg/mL (≈ 208 µM); MIC ([8]; ATCC29212, Table 2): 32 µg/mL (≈ 208 µM)
Cc1ccc([B-]2(c3ccc(C)c(Cl)c3)OC(=O)c3c(OCCCC(=O)O)ccc[n+]32)cc1Cl [Compound 109]		4	1	16	16	32	MIC S. pneumonia ATCC 6301 [4]: 4 micrograms per ml
CCc1cc(C(N)=S)ccn1 [Ethionamide]	1 (≈ 6.02 µM)						
[H]/N=C(/N)N[C@H]1[C@H](O)[C@@H](O)[C@H](O[C@@H]2O[C@@H](C)[C@](O)(C=O)[C@H]2O[C@@H]2O[C@@H](CO)[C@H](O)[C@@H](O)[C@@H]2NC)[C@@H](N/C(N)=N\[H])[C@@H]1O [Streptomycin]	< 2						
NNC(=O)c1ccncc1 [Isoniazid (INH), Isoniazid]	< 0.062						
O=C(O)c1ncccc1O [Compound 115, 3-hydroxypicolinic acid]		2	2	64	16	8	MIC S. pneumonia ATCC 6301 [4]: 1 micrograms per ml
OCc1ccccn1 [Compound 105, 2-hydroxymethylpyridine]							MIC ([2]; ATCC12228, Table 2): 4 µg/mL (≈ 36.7 µM); MIC [4, 9]: 4 µg/mL (≈ 36.7 µM); MIC ([5]; ATCC29213, Table 2): 0.125 µg/mL (≈ 1.15 µM); MIC [6]: 4 µg/mL (≈ 36.7 µM); MIC ([7]; CT26, Table 2): 32 µg/mL (≈ 293 µM); MIC ([8]; ATCC29212, Table 2): 32 µg/mL (≈ 293 µM)
O=C(O)c1ncccc1O [Compound 113, 3-hydroxypicolinic acid]		1	0.5	64	64	2	
O=C(O)c1ncccc1O [Compound 112, 3-hydroxypicolinic acid]		2	4	64	8	4	

From patent publication US7390806B2, “Antibiotics containing borinic acid complexes and methods of use” (Anacor Pharmaceuticals, Inc., priority 2002, dated 2008)
